According to ChEMBL document CHEMBL3124779, “Discovery of ABT-267, a pan-genotypic inhibitor of HCV NS5A” (J Med Chem, 2014):

Columns and labels:
Hepatitis C virus [1] = assay: Antiviral activity against HCV1b Con1 infected in human HuH7 cells assessed as inhibition of viral replication after 4 days by luciferase reporter gene assay in presence of 40% human plasma; format: functional, organism-based, Hepacivirus hominis; conditions: isolate Con1, Huh-7, Plasma, 96 h
Hepatitis C virus [2] = assay: Antiviral activity against HCV1a H77 infected in human HuH7 cells assessed as inhibition of viral replication after 4 days by luciferase reporter gene assay; format: functional, organism-based, Hepacivirus hominis; conditions: genotype 1a H77, Huh-7, 96 h
Hepatitis C virus [3] = assay: Antiviral activity against HCV1a H77 infected in human HuH7 cells assessed as inhibition of viral replication after 4 days by luciferase reporter gene assay in presence of 40% human plasma; format: functional, organism-based, Hepacivirus hominis; conditions: genotype 1a H77, Huh-7, Plasma, 96 h
Hepatitis C virus [4] = assay: Ratio of EC50 for HCV1a H77 infected in human HuH7 cells in presence of 40% human plasma to EC50 for HCV1a H77 infected in human HuH7 cells in absence of 40% human plasma; format: functional, Hepacivirus hominis, genotype 1a H77, Huh-7
Hepatitis C virus [5] = assay: Ratio of EC50 for HCV1b Con1 infected in human HuH7 cells in presence of 40% human plasma to EC50 for HCV1b Con1 infected in human HuH7 cells in absence of 40% human plasma; format: functional, Hepacivirus hominis, isolate Con1, Huh-7
Hepatitis C virus [6] = assay: Antiviral activity against HCV1b Con1 infected in human HuH7 cells assessed as inhibition of viral replication after 4 days by luciferase reporter gene assay; format: functional, organism-based, Hepacivirus hominis; conditions: isolate Con1, Huh-7, 96 h

Compound | EC50 (Hepatitis C virus [1]) [pM] | EC50 (Hepatitis C virus [2]) [pM] | EC50 (Hepatitis C virus [3]) [pM] | EC50 (Hepatitis C virus [6]) [pM] | Ratio EC50 (Hepatitis C virus [4]) | Ratio EC50 (Hepatitis C virus [5])
COC(=O)N[C@H](C(=O)N1CCC[C@H]1C(=O)Nc1ccc([C@H]2CC[C@@H](c3ccc(NC(=O)[C@@H]4CCCN4C(=O)[C@@H](NC(=O)OC)C(C)(C)C)cc3)N2c2ccc(F)cc2)cc1)C(C)(C)C | 278 | 6220 | 103000 | 32 | 17 | 9
CC[C@H](NC(=O)OC)C(=O)N1CCC[C@H]1C(=O)Nc1ccc([C@@H]2CC[C@@H](c3ccc(NC(=O)[C@@H]4CCCN4C(=O)[C@H](CC)NC(=O)OC)cc3)N2c2ccc(F)cc2)cc1 | 1000 | 4600 | 34000 | 140 | 7 | 7
COC(=O)N[C@H](C(=O)N1CCC[C@H]1C(=O)Nc1ccc([C@@H]2CC[C@@H](c3ccc(NC(=O)[C@@H]4CCCN4C(=O)[C@@H](NC(=O)OC)C(C)C)cc3)N2c2ccc(OC)cc2)cc1)C(C)C | 447 | 992 | 5920 | 76 | 6 | 6
COC(=O)N[C@H](C(=O)N1CCC[C@H]1C(=O)Nc1ccc([C@@H]2CC[C@@H](c3ccc(NC(=O)[C@@H]4CCCN4C(=O)[C@@H](NC(=O)OC)C(C)(C)C)cc3)N2c2ccc(C(F)(F)F)cc2)cc1)C(C)(C)C | 211 | 99 | 4140 | 8.8 | 42 | 24
COC(=O)N[C@H](C(=O)N1CCC[C@H]1C(=O)Nc1ccc([C@H]2CC[C@H](c3ccc(NC(=O)[C@@H]4CCCN4C(=O)[C@@H](NC(=O)OC)C(C)C)cc3)N2c2ccc(C3CC3)cc2)cc1)C(C)C | 114 | 164 | 1680 | 8.7 | 10 | 13
COC(=O)N[C@H](C(=O)N1CCC[C@H]1C(=O)Nc1ccc([C@H]2CC[C@H](c3ccc(NC(=O)[C@@H]4CCCN4C(=O)[C@@H](NC(=O)OC)C(C)(C)C)cc3)N2c2ccc(S(C)(=O)=O)cc2)cc1)C(C)(C)C | 3420 | 659 | 27600 | 226 | 42 | 15
COC(=O)N[C@H](C(=O)N1CCC[C@H]1C(=O)Nc1ccc([C@@H]2CC[C@@H](c3ccc(NC(=O)[C@@H]4CCCN4C(=O)[C@@H](NC(=O)OC)C(C)C)cc3)N2c2ccc(-c3cccnc3)cc2)cc1)C(C)C | 597 | 143 | 2570 | 69 | 18 | 9
COC(=O)N[C@H](C(=O)N1CCC[C@H]1C(=O)Nc1ccc(CN(Cc2ccc(NC(=O)[C@@H]3CCCN3C(=O)[C@@H](NC(=O)OC)C(C)C)cc2)c2ccc(F)cc2)cc1)C(C)C |  | 38000 |  | 400 |  | 
COC(=O)N[C@H](C(=O)N1CCC[C@H]1C(=O)Nc1ccc([C@H]2CC[C@@H](c3ccc(NC(=O)[C@@H]4CCCN4C(=O)[C@@H](NC(=O)OC)C(C)C)cc3)N2c2ccc(F)cc2)cc1)C(C)C | 300 | 22000 | 81000 | 90 | 4 | 3
CC[C@H](C)[C@H](NC(=O)OC)C(=O)N1CCC[C@H]1C(=O)Nc1ccc([C@@H]2CC[C@@H](c3ccc(NC(=O)[C@@H]4CCCN4C(=O)[C@@H](NC(=O)OC)[C@@H](C)CC)cc3)N2c2ccc(F)cc2)cc1 (mixture of isomers) | 171 | 1310 | 9790 | 30 | 7 | 6
COC(=O)N[C@H](C(=O)N1CCC[C@H]1C(=O)Nc1ccc([C@@H]2CC[C@@H](c3ccc(NC(=O)[C@@H]4CCCN4C(=O)[C@@H](NC(=O)OC)C(C)(C)O)cc3)N2c2ccc(F)cc2)cc1)C(C)(C)O (mixture of isomers) | 2600 | 600 | 18000 | 50 | 30 | 52
COC(=O)N[C@H](C(=O)N1CCC[C@H]1C(=O)Nc1ccc([C@@H]2CC[C@@H](c3ccc(NC(=O)[C@@H]4CCCN4C(=O)[C@@H](NC(=O)OC)C(C)C)cc3)N2c2ccc(C)cc2)cc1)C(C)C (mixture of isomers) | 204 | 720 | 4360 | 40 | 6 | 5
COC(=O)N[C@H](C(=O)N1CCC[C@H]1C(=O)Nc1ccc([C@@H]2CC[C@@H](c3ccc(NC(=O)[C@@H]4CCCN4C(=O)[C@@H](NC(=O)OC)C(C)C)cc3)N2c2ccc(Cl)cc2)cc1)C(C)C (mixture of isomers) | 300 | 370 | 4070 | 30 | 11 | 10
COC(=O)N[C@H](C(=O)N1CCC[C@H]1C(=O)Nc1ccc([C@@H]2CC[C@@H](c3ccc(NC(=O)[C@@H]4CCCN4C(=O)[C@@H](NC(=O)OC)C(C)C)cc3)N2c2ccc(Br)cc2)cc1)C(C)C (mixture of isomers) | 89 | 286 | 4460 | 6.8 | 16 | 13
COC(=O)N[C@H](C(=O)N1CCC[C@H]1C(=O)Nc1ccc([C@@H]2CC[C@@H](c3ccc(NC(=O)[C@@H]4CCCN4C(=O)[C@@H](NC(=O)OC)C(C)C)cc3)N2c2ccc(O)cc2)cc1)C(C)C (mixture of isomers) | 59500 | 23000 | 242000 | 6540 | 11 | 9
COC(=O)N[C@H](C(=O)N1CCC[C@H]1C(=O)Nc1ccc([C@@H]2CC[C@@H](c3ccc(NC(=O)[C@@H]4CCCN4C(=O)[C@@H](NC(=O)OC)C(C)C)cc3)N2c2ccc(C(C)C)cc2)cc1)C(C)C (mixture of isomers) | 86 | 33 | 706 | 7.9 | 21 | 11

Continued, in another order:

EC50 (Hepatitis C virus [1]) [pM] | EC50 (Hepatitis C virus [2]) [pM] | EC50 (Hepatitis C virus [3]) [pM] | EC50 (Hepatitis C virus [6]) [pM] | Compound | Ratio EC50 (Hepatitis C virus [4]) | Ratio EC50 (Hepatitis C virus [5])
184 | 829 | 14300 | 11 | COC(=O)N[C@H](C(=O)N1CCC[C@H]1C(=O)Nc1ccc([C@H]2CC[C@H](c3ccc(NC(=O)[C@@H]4CCCN4C(=O)[C@@H](NC(=O)OC)C(C)(C)C)cc3)N2c2ccc(C(F)(F)F)cc2)cc1)C(C)(C)C | 17 | 17
948 | 116 | 1470 | 95 | COC(=O)N[C@H](C(=O)N1CCC[C@H]1C(=O)Nc1ccc([C@@H]2CC[C@@H](c3ccc(NC(=O)[C@@H]4CCCN4C(=O)[C@@H](NC(=O)OC)C(C)C)cc3)N2c2ccc(C(C)(C)CO)cc2)cc1)C(C)C | 13 | 10
1600 | 1240 | 11200 | 211 | COC(=O)N[C@H](C(=O)N1CCC[C@H]1C(=O)Nc1ccc([C@H]2CC[C@H](c3ccc(NC(=O)[C@@H]4CCCN4C(=O)[C@@H](NC(=O)OC)C(C)(C)C)cc3)N2c2ccc(N3CCOCC3)cc2)cc1)C(C)(C)C | 9 | 8
 | 253000 |  | 282000 | COC(=O)N[C@H](C(=O)N1CCC[C@H]1C(=O)Nc1ccc([C@@H]2CC[C@@H](c3ccc(NC(=O)[C@@H]4CCCN4C(=O)[C@@H](NC(=O)OC)C(C)C)cc3)N2)cc1)C(C)C |  | 
90 | 202 | 6560 | 10 | CC[C@@H](C)[C@H](NC(=O)OC)C(=O)N1CCC[C@H]1C(=O)Nc1ccc([C@@H]2CC[C@@H](c3ccc(NC(=O)[C@@H]4CCCN4C(=O)[C@@H](NC(=O)OC)[C@H](C)CC)cc3)N2c2ccc(F)cc2)cc1 (mixture of isomers) | 32 | 9
73 | 1060 | 22800 | 2 | COC(=O)N[C@H](C(=O)N1CCC[C@H]1C(=O)Nc1ccc([C@@H]2CC[C@@H](c3ccc(NC(=O)[C@@H]4CCCN4C(=O)[C@@H](NC(=O)OC)c4ccccc4)cc3)N2c2ccc(F)cc2)cc1)c1ccccc1 (mixture of isomers) | 22 | 37
256 | 890 | 1690 | 11 | COC(=O)N[C@H](C(=O)N1CCC[C@H]1C(=O)Nc1ccc([C@@H]2CC[C@@H](c3ccc(NC(=O)[C@@H]4CCCN4C(=O)[C@@H](NC(=O)OC)C(C)C)cc3)N2c2ccc(-c3ccccc3)cc2)cc1)C(C)C (mixture of isomers) | 19 | 23
